In publication PMC5084695 (Biochemistry, 2016):

Legend:
[1] = target: SbnA (Staphylococcus aureus, UniProt A6QDA0); assay: coupled inorganic phosphate release assay; format: biochemical
[2] = target: SbnA (Staphylococcus aureus, UniProt A6QDA0, S185G/Y152F); assay: biochemical
[3] = target: SbnA (Staphylococcus aureus, UniProt A6QDA0, S185G); assay: biochemical

N[C@@H](CS)C(=O)O [L-cysteine]
Ki [1]: 91 ± 16 µM | Kd [2]: 8900 ± 3200 µM | Ki [3]: 2100 ± 500 µM
